System: 935938-334-R-J1-PDC spheroids with HUVEC/MSC, viability
Assay: Anticancer human tumor 935938-334-R-J1-PDC patient-derived small intestine adenocarcinoma cell line growth inhibition [PI3K]
Conditions: for IC50: curve of first compound; for viability, T/C: stronger effect = lower value; active means viability on the fitted dose curve at most 10% of control; inactive means the rest
Method in brief: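 Spheroid viability read-out. Co-cultures contained the tumor line plus HUVEC and human MSCs. Each agent was paired with a PI3K inhibitor (inavolisib, alpelisib, duvelisib, copanlisib) across half-log dilutions starting at clinical Cmax, or at 10 microM when Cmax was unknown.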

[1] = second compound 0.0316 µM, first compound 0.0316 µM
[2] = second compound 0.0316 µM, first compound 0.1 µM
[3] = second compound 0.0316 µM, first compound 0.316 µM
[4] = second compound 0.0316 µM, first compound 1 µM
[5] = second compound 0.0316 µM, first compound 3.16 µM
[6] = second compound 0.0316 µM, first compound 10 µM
[7] = second compound 0.1 µM, first compound 0.0316 µM
[8] = second compound 0.1 µM, first compound 0.1 µM
[9] = second compound 0.1 µM, first compound 0.316 µM
[10] = second compound 0.1 µM, first compound 1 µM
[11] = second compound 0.1 µM, first compound 3.16 µM
[12] = second compound 0.1 µM, first compound 10 µM
[13] = second compound 0.316 µM, first compound 0.0316 µM
[14] = second compound 0.316 µM, first compound 0.1 µM
[15] = second compound 0.316 µM, first compound 0.316 µM
[16] = second compound 0.316 µM, first compound 1 µM
[17] = second compound 0.316 µM, first compound 3.16 µM
[18] = second compound 0.316 µM, first compound 10 µM
[19] = second compound 1 µM, first compound 0.0316 µM
[20] = second compound 1 µM, first compound 0.1 µM
[21] = second compound 1 µM, first compound 0.316 µM
[22] = second compound 1 µM, first compound 1 µM
[23] = second compound 1 µM, first compound 3.16 µM
[24] = second compound 1 µM, first compound 10 µM
[25] = second compound 3.16 µM, first compound 0.0316 µM
[26] = second compound 3.16 µM, first compound 0.1 µM
[27] = second compound 3.16 µM, first compound 0.316 µM
[28] = second compound 3.16 µM, first compound 1 µM
[29] = second compound 3.16 µM, first compound 3.16 µM
[30] = second compound 3.16 µM, first compound 10 µM
[31] = second compound 10 µM, first compound 0.0316 µM
[32] = second compound 10 µM, first compound 0.1 µM
[33] = second compound 10 µM, first compound 0.316 µM
[34] = second compound 10 µM, first compound 1 µM
[35] = second compound 10 µM, first compound 3.16 µM
[36] = second compound 10 µM, first compound 10 µM
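Further: compound exposure lasted seven days before viability was read.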
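Wherever viability, T/C is given: percent of vehicle DMSO treated spheroid viability so 100% = untreated.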

CC(C)NCC(C(=O)N1CCN(c2ncnc3c2C(C)CC3O)CC1)c1ccc(Cl)cc1 (stereo unspecified) + CC(Nc1ncnc2nc[nH]c12)c1cc2cccc(Cl)c2c(=O)n1-c1ccccc1
2560 nM: IC50 (second compound 3.16 µM)
3420 nM: IC50 (second compound 0.1 µM)
7260 nM: IC50 (second compound 0.0316 µM)
1900 nM: IC50 (second compound 10 µM)
1780 nM: IC50 (second compound 1 µM)
6420 nM: IC50 (second compound 0.316 µM)
inactive: viability, T/C [1] 75.5% | viability, T/C [2] 80% | viability, T/C [3] 72.4% | viability, T/C [4] 64% | viability, T/C [5] 78.6% | viability, T/C [6] 40.6% | viability, T/C [7] 91.7% | viability, T/C [8] 69.4% | viability, T/C [9] 79.6% | viability, T/C [10] 60.5% | viability, T/C [11] 55.1% | viability, T/C [12] 34.1% | viability, T/C [13] 93.1% | viability, T/C [14] 93% | viability, T/C [15] 60.6% | viability, T/C [16] 58% | viability, T/C [17] 65.8% | viability, T/C [18] 42.3% | viability, T/C [19] 100% | viability, T/C [20] 87.3% | viability, T/C [21] 59.5% | viability, T/C [22] 67.2% | viability, T/C [23] 40.5% | viability, T/C [24] 31.4% | viability, T/C [25] 64.6% | viability, T/C [26] 78.1% | viability, T/C [27] 70% | viability, T/C [28] 64.1% | viability, T/C [29] 44.1% | viability, T/C [30] 49.6% | viability, T/C [31] 69.5% | viability, T/C [32] 59.8% | viability, T/C [33] 65.5% | viability, T/C [34] 62% | viability, T/C [35] 40.1% | viability, T/C [36] 40.8%

CCN1CCN(Cc2ccc(Nc3ncc(F)c(-c4cc(F)c5nc(C)n(C(C)C)c5c4)n3)nc2)CC1 + CC(Nc1ncnc2nc[nH]c12)c1cc2cccc(Cl)c2c(=O)n1-c1ccccc1
inactive: viability, T/C (second compound 0.0316 µM, first compound 0.00316 µM) 90.2% | viability, T/C (second compound 0.0316 µM, first compound 0.01 µM) 85.8% | viability, T/C [1] 71.4% | viability, T/C [2] 58.9% | viability, T/C [3] 46.8% | viability, T/C [4] 37.3% | viability, T/C (second compound 0.1 µM, first compound 0.00316 µM) 95.7% | viability, T/C (second compound 0.1 µM, first compound 0.01 µM) 92.6% | viability, T/C [7] 73.8% | viability, T/C [8] 62.9% | viability, T/C [9] 41% | viability, T/C [10] 48.2% | viability, T/C (second compound 0.316 µM, first compound 0.00316 µM) 79.4% | viability, T/C (second compound 0.316 µM, first compound 0.01 µM) 85% | viability, T/C [13] 70.3% | viability, T/C [14] 53.4% | viability, T/C [15] 49.1% | viability, T/C [16] 35.2% | viability, T/C (second compound 1 µM, first compound 0.00316 µM) 77% | viability, T/C (second compound 1 µM, first compound 0.01 µM) 86% | viability, T/C [19] 66.7% | viability, T/C [20] 64.4% | viability, T/C [21] 43.1% | viability, T/C [22] 31.5% | viability, T/C (second compound 3.16 µM, first compound 0.00316 µM) 74.3% | viability, T/C (second compound 3.16 µM, first compound 0.01 µM) 68% | viability, T/C [25] 57.5% | viability, T/C [26] 56.8% | viability, T/C [27] 43.6% | viability, T/C [28] 40.1% | viability, T/C (second compound 10 µM, first compound 0.00316 µM) 59.3% | viability, T/C (second compound 10 µM, first compound 0.01 µM) 82.1% | viability, T/C [31] 63.4% | viability, T/C [32] 39% | viability, T/C [33] 38.3% | viability, T/C [34] 34.6%
185 nM: IC50 (second compound 0.316 µM)
215 nM: IC50 (second compound 1 µM)
164 nM: IC50 (second compound 3.16 µM)
246 nM: IC50 (second compound 0.1 µM)
58.9 nM: IC50 (second compound 10 µM)
223 nM: IC50 (second compound 0.0316 µM)

Cn1ncc(Cl)c1-c1cc(C(=O)NC(CN)Cc2cccc(F)c2)sc1Cl (stereo unspecified) + CC(Nc1ncnc2nc[nH]c12)c1cc2cccc(Cl)c2c(=O)n1-c1ccccc1
1760 nM: IC50 (second compound 3.16 µM)
3110 nM: IC50 (second compound 0.316 µM)
> 10000 nM: IC50 (second compound 0.0316 µM) | IC50 (second compound 0.1 µM)
2710 nM: IC50 (second compound 1 µM)
inactive: viability, T/C [1] 73% | viability, T/C [2] 91.4% | viability, T/C [3] 65.3% | viability, T/C [4] 65.4% | viability, T/C [5] 54.6% | viability, T/C [6] 51.3% | viability, T/C [7] 92.6% | viability, T/C [8] 88.9% | viability, T/C [9] 88.1% | viability, T/C [10] 63.2% | viability, T/C [11] 56.8% | viability, T/C [12] 58.1% | viability, T/C [13] 104% | viability, T/C [14] 128% | viability, T/C [15] 75% | viability, T/C [16] 78.4% | viability, T/C [17] 49.3% | viability, T/C [18] 34% | viability, T/C [19] 73.5% | viability, T/C [20] 97.8% | viability, T/C [21] 73.1% | viability, T/C [22] 61.6% | viability, T/C [23] 51.3% | viability, T/C [24] 36.3% | viability, T/C [25] 72.2% | viability, T/C [26] 74.1% | viability, T/C [27] 61.5% | viability, T/C [28] 47.9% | viability, T/C [29] 52.5% | viability, T/C [30] 33.2% | viability, T/C [31] 73.2% | viability, T/C [32] 83.9% | viability, T/C [33] 45.5% | viability, T/C [34] 52.7% | viability, T/C [35] 39.4% | viability, T/C [36] 34.5%
271 nM: IC50 (second compound 10 µM)
